The text below walks through data of publication PMC11273618, “Multianalytical Approach to Understand Polyphenol-Mal d 1 Interactions to Predict Their Impact on the Allergenic Potential of Apples” (Journal of Agricultural and Food Chemistry, 2024).

Experiment [1] concerns the target T1, r-Mal d 1.01 (recombinant Mal d 1.0108) (Malus domestica, UniProt Q9SYW3).
T1 construct: gene MALD1; 15N-labelled in M9 medium for HSQC NMR; one cysteine (Cys107)
T1 sequence (Q9SYW3 1-159): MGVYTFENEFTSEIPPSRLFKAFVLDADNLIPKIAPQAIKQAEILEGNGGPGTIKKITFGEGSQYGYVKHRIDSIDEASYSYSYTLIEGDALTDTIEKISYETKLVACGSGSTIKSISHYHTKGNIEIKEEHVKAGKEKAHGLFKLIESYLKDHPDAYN
Briefly: untargeted bottom-up LC-MS of tryptic peptides. It counts as binding. To be noted: covalent; Michael addition at Cys107 (peptide LVACGSGSTIK) via o-quinone formed by autoxidation; excess ligand in water, 20 min, room temperature.

The target in experiment [2] is T1, r-Mal d 1.01 (recombinant Mal d 1.0108). Briefly: isothermal titration calorimetry, independent model. The settings on record: 0.1 M sodium phosphate pH 7, 25 °C; 0.2 mM protein, 4 mM ligand injected; stoichiometry fixed at n = 1; weak nonspecific surface binding; unreliable. On the technique in general: In ITC the heat of successive injections is recorded.
Experiment [3] shares this target. Briefly: 1H-15N-HSQC NMR chemical shift perturbation. The settings on record: 50 mM phosphate pH 7, 10% D2O, 25 °C; 100 μM 15N-protein, 0.1-2 mM ligand; no specific site, scattered over surface. It counts as binding.

As a reminder, the KD is the constant that tells how readily two partners part at equilibrium. As to `Oc1cc(O)c2c(c1)O[C@H](c1ccc(O)c(O)c1)[C@H](O)C2` [EC, (−)-epicatechin], the “% modification of Cys107 peptide” value in experiment [1] is on record as ~ 30%. Further, in experiment [2], the KD is 1400 µM.
Turning to `O=C(/C=C/c1ccc(O)c(O)c1)O[C@@H]1C[C@](O)(C(=O)O)C[C@@H](O)[C@H]1O` [CA, chlorogenic acid], the “1H-15N-HSQC NMR chemical shift perturbation” value in experiment [3] is reported as “CA showed by far the strongest impact on the protein surface”.
As for `Oc1cc(O)c2c(c1)O[C@H](c1ccc(O)c(O)c1)[C@H](O)[C@H]2c1c(O)cc(O)c2c1O[C@H](c1ccc(O)c(O)c1)[C@@H](O)C2` [PC B1, procyanidin B1], in experiment [2], the dissociation constant (KD) was found to be 1200 ± 200 µM.
Still for that read-out and setting: with `Oc1cc(O)c2c(c1)O[C@H](c1ccc(O)c(O)c1)[C@H](O)[C@H]2c1c(O)cc(O)c2c1O[C@H](c1ccc(O)c(O)c1)[C@H](O)C2` [PC B2, procyanidin B2] the figure was 600 ± 0 µM; with `Oc1cc(O)c2c(c1)O[C@H](c1ccc(O)c(O)c1)[C@@H](O)C2` [CAT, (+)-catechin], 500 ± 0 µM.
